Measured values taken from ChEMBL document CHEMBL4028815, “Novel phosphonate analogs of sulforaphane: Synthesis, in vitro and in vivo anticancer activity” (Eur J Med Chem, 2017).
The source made the active and inactive calls. The calls are words filed in the database; no cut-off is given here.

Tests used:
LoVo [1] = assay: Potency index, ratio of benzyl isothiocyanate IC50 to compound IC50 for human LoVo cells; assay type: functional
HL-60 = assay: Cytotoxicity against human HL60 cells after 72 hrs by sulforhodamine B assay; assay type: functional, cell-based; conditions: HL-60, 72 h
[2] = Resistance index, ratio of IC50 for human HL60/MX2 cells to IC50 for human HL60 cells; assay type: functional
LoVo [3] = assay: Cytotoxicity against human LoVo cells after 72 hrs by sulforhodamine B assay; assay type: functional, cell-based
BALB/3T3 = assay: Cytotoxicity against mouse BALB/3T3 cells after 72 hrs by sulforhodamine B assay; assay type: cell-based; conditions: BALB/3T3, 72 h
LoVo/DX = assay: Cell cycle arrest in human LoVo/DX cells assessed as accumulation at G2/M phase at 15 uM after 24 hrs by propidium iodide staining based flow cytometric method; assay type: functional
[4] = Induction of apoptosis in human LoVo/DX cells assessed as increase in caspase3/7 activity at 15 uM using Ac-DEVD-ACC as substrate pretreated for 24 hrs followed by substrate addition measured for 2 hrs by fluorescence assay relative to control; assay type: functional
LoVo [5] = assay: Induction of apoptosis in human LoVo cells assessed as necrotic cells at 15 uM after 24 hrs by APC-Annexin-V/propidium iodide staining based flow cytometric method (reference value: 10%); assay type: functional
Mus musculus [6] = assay: Hepatotoxicity in BALB/c mdb mouse implanted with mouse 4T1 cells assessed as liver weight at 100 umol/kg, ip administered five times weekly measured at 29 day post cell innoculum (reference value: 1.2 +/- 0.13 g); assay type: toxicity, organism-based; conditions: in vivo, 696 h
Mus musculus [7] = assay: Nephrotoxicity in BALB/c mdb mouse implanted with mouse 4T1 cells assessed as kidney weight at 100 umol/kg, ip administered five times weekly measured at 29 day post cell innoculum (reference value: 0.136 +/- 0.006 g); assay type: toxicity, organism-based; conditions: in vivo, 696 h
Mus musculus [8] = assay: Toxicity in BALB/c mdb mouse implanted with mouse 4T1 cells assessed as hematocrit at 100 umol/kg, ip administered five times weekly measured at 29 day post cell innoculum (reference value: 39.9 +/- 3.7 %); assay type: organism-based; conditions: in vivo, 696 h

O=P(CCCCCCN=C=S)(Oc1ccccc1)Oc1ccccc1
Ratio IC50 (LoVo [1]): 5
IC50 (HL-60): 800 nM
Ratio IC50 [2]: 4.3
IC50 (LoVo [3]): 2900 nM
IC50 (BALB/3T3): 11500 nM
Activity (LoVo/DX): Active
fold change (FC) [4]: 6.8
Activity (LoVo [5]): 23.3%
Activity (Mus musculus [6]): 1.32 g
Activity (Mus musculus [7]): 0.143 g
Activity (Mus musculus [8]): 57.6%
